Assay results from patent US20140336067A1, “METHOD FOR FINDING BIOACTIVE PEPTIDES” (Nano Intelligent Biomedical Engineering Corporation Co. Ltd., priority 2011, published 2014).

Columns and labels:
[1] = test system: hMSCs (human mesenchymal stem cells); assay: In vitro cell differentiation potential by calcium production (Alizarin red S staining); assay type: cell-based; conditions: hMSCs treated with 10 mM peptide, hard tissue forming medium, FIG. 6
Experimental: To measure the cell differentiation ability of the heparin binding peptide by calcium production, 1×10^3 hMSCs (human mesenchymal stem cells) were dispensed into each well of a well-plate, and then treated with 10 mM of each of the peptides of SEQ ID NOS: 2 and 3 synthesized in Example 2. Then, the cells were cultured in a hard tissue forming medium (MSCBM medium containing 15% FBS (fetal bovine serum), […] L-ascorbic acid, 10^−7 M dexamethasone, 1% antibiotic-antimycotic solution, and 10 mM beta-glycerol phosphate) for […]. After completion of the culture, the medium was removed, and the cells were washed twice with phosphate buffered saline (PBS). Then, the cells were fixed with 90% ethanol at 4° C. for 15 minutes and washed twice with distilled water, followed by staining with 2% Alizarin red S solution (pH 4.2; Alizarin red S powder, Junsei, JAPAN) for 5 minutes.

[2] = Binding of synthesized peptide to heparin (solid phase method, HRP-conjugated heparin binding protein, absorbance at 405 nm); conditions: peptide coated on 96-well plates, sodium heparin 10 μg/100 μL, FIG. 5
Experimental: The synthesized peptide was dissolved in PBS at various concentrations and coated on the surface of 96-well Maxisorp microtiter plates (Nunc). Then, it was blocked with 1% BSA at 37° C. for 1 hour, and sodium heparin (10 μg/100 μL) was added to the peptide and reacted with the peptide at room temperature for 4 hours. The plate was washed three times with PBS, and then horseradish peroxidase (HRP)-conjugated heparin binding protein (Lifespan Technologies, Salt Lake City, Utah) diluted in PBS at a concentration of 1 μg/mL was reacted with the peptide at room temperature for 1 hour. To measure the binding of HRP-conjugated heparin binding protein to the peptide, ABTS was added to each well to develop color, and after 5 minutes, 1% SDS was added to each well to stop the reaction. Then, the absorbance of each well at 405 nm was measured. The absorbance of the peptide having the HRP-conjugated heparin binding protein bound thereto was calculated relative to 100% for the well surface coated with 1% BSA.
Binding %=(absorbance of well coated with heparin binding peptide/absorbance of well coated with BSA)×100

Sequence | production of calcium [1] | ability to bind to heparin [2]
SLYVDFSDVGW (the sequence is synthesized) [SEQ ID NO: 3, BMP-4 peptide selected from chymotrypsin cleavage sites] | lowest | 
SQRARKKNKNCRRH (the sequence is synthesized) [SEQ ID NO: 2] | highest | high ability to bind to heparin
